Assay results as given in patent publication US20160175318A1, “COMPOSITIONS COMPRISING ANTIBACTERIAL AGENT AND TAZOBACTAM” (WOCKHARDT LIMITED, priority 2013, published 2016).
Where two headings read alike, the source gives them in different places.

Experiments:
Assay type in all cases: cell-based
E. coli 7MP [1] = assay: Quantitative drug diffusion assay (disc, zone of inhibition, CLSI); set-up: key to Interpretation of zone as per CLSI recommendations: R: Resistant; I: Intermediate; S: Sensitive (Interpretation as per CLSI recommendations, 2010)
From the text: (§1) Activity of cefepime in combination with tazobactam and various penicillins in combination with respective ESBL inhibitors was also investigated against highly resistant ESBL strains in quantitative drug diffusion assay performed as per CLSI recommendations (Clinical and Laboratory Standards Institute (CLSI), performance Standards for Antimicrobial Susceptibility Testing, 20th Informational Supplement, M 100-S20, Volume 30, No. 1, 2010).
(§2) In a typical study, overnight grown bacterial cultures after appropriate dilution were seed inoculated in the molten, cooled agar media and plates poured. Antibiotics containing 6 mm diameter discs were place on the top of the agar surface. Zone of inhibition based observation was performed after 16-18 h of incubation at 35±2° C. in ambient air. The overall procedure was performed as per CLSI recommendations (Table 5 and 6). These assays are routinely used in determining possibility of treating a particular infection using antibiotic and/or their combinations. For example, in case of treating an infection caused by E. coli (M138) using Augmentin® [commercially available combination: Amoxicillin (500 mg)+Clavulanic acid (125 mg)], the zone inhibition values need to be in the sensitive (S) range.

E. coli B-89 [2] = assay: as above; set-up: key to Interpretation of zone as per CLSI recommendations: R: Resistant; I: Intermediate; S: Sensitive (Interpretation as per CLSI recommendations, 2010)
From the text: as §1, §2

E. coli M50 [3] = assay: as above; set-up: key to Interpretation of zone as per CLSI recommendations: R: Resistant; I: Intermediate; S: Sensitive (Interpretation as per CLSI recommendations, 2010)
From the text: as §1, §2

E. coli M-138 = assay: as above; set-up: key to Interpretation of zone as per CLSI recommendations: R: Resistant; I: Intermediate; S: Sensitive (Interpretation as per CLSI recommendations, 2010)
From the text: as §1, §2

E. coli B-123 = assay: as above; set-up: key to Interpretation of zone as per CLSI recommendations: R: Resistant; I: Intermediate; S: Sensitive (Interpretation as per CLSI recommendations, 2010)
From the text: as §1, §2

E. coli S-112 = assay: as above; set-up: key to Interpretation of zone as per CLSI recommendations: R: Resistant; I: Intermediate; S: Sensitive (Interpretation as per CLSI recommendations, 2010)
From the text: as §1, §2

E. coli 7MP [4] = assay: MIC by agar dilution (CLSI) against highly resistant ESBL strain
Protocol: (§3) The results on activity of cefepime and other cephalosporin antibacterial agents in combination with tazobactam against highly resistant ESBL strains are given Table 1. In a typical study, overnight grown bacterial cultures were diluted appropriately and inoculated on the agar media containing doubling dilutions of the antibiotic. Observation for growth or no growth was performed after 16-20 h of incubation at 35±2° C. in ambient air. The overall procedure was performed as per Clinical and Laboratory Standards Institute (CLSI) recommendations. This experimental was followed for Examples 2-4 and 6 below (Table 2-4 and 7).

E. cloacae M-20 = assay: as above
Protocol: as §3

E. coli B-89 [5] = assay: as above
Protocol: as §3

E. coli M50 [6] = assay: as above
Protocol: as §3

K. pneumoniae M150 = assay: as above; conditions: Klebsiella pneumoniae
Protocol: as §3

[7] = ESBL inhibitor 0 mcg (antibiotic alone)
[8] = Table 5, with Clavulanic acid 10 mcg
[9] = Table 6, with Clavulanic acid 10 mcg
[10] = E. coli 7MP, with Tazobactam 4 mcg
[11] = E. coli 7MP, with Tazobactam 8 mcg
[12] = E. cloacae M-20, with Tazobactam 4 mcg
[13] = E. cloacae M-20, with Tazobactam 8 mcg
[14] = E. coli B-89, with Tazobactam 4 mcg
[15] = E. coli B-89, with Tazobactam 8 mcg
[16] = M150, K. pneumoniae M150, with Tazobactam 4 mcg, read-out: MIC
[17] = M150, K. pneumoniae M150, with Tazobactam 8 mcg, read-out: MIC

SMILES: CC1(C)S[C@@H]2[C@H](NC(=O)[C@H](N)c3ccc(O)cc3)C(=O)N2[C@H]1C(=O)O [Amoxicillin]
- Zone of Inhibition (E. coli 7MP [1]; [7]): Nil
- Interpretation of zone as per CLSI recommendations (E. coli 7MP [1]; Table 5, ESBL inhibitor 0 mcg): (R)
- Interpretation of zone as per CLSI recommendations (E. coli 7MP [1]; [8]): (R)
- Interpretation of zone as per CLSI recommendations (E. coli 7MP [1]; Table 6, ESBL inhibitor 0 mcg): (R)
- Interpretation of zone as per CLSI recommendations (E. coli 7MP [1]; [9]): (R)
- Zone of Inhibition (E. coli 7MP [1]; with Clavulanic acid 10 mcg): Nil
- Zone of Inhibition (E. coli B-89 [2]; [7]): Nil
- Interpretation of zone as per CLSI recommendations (E. coli B-89 [2]; Table 5, ESBL inhibitor 0 mcg): (R)
- Interpretation of zone as per CLSI recommendations (E. coli B-89 [2]; [8]): (R)
- Interpretation of zone as per CLSI recommendations (E. coli B-89 [2]; Table 6, ESBL inhibitor 0 mcg): (R)
- Interpretation of zone as per CLSI recommendations (E. coli B-89 [2]; [9]): (R)
- Zone of Inhibition (E. coli B-89 [2]; with Clavulanic acid 10 mcg): Nil
- Zone of Inhibition (E. coli M50 [3]; [7]): Nil
- Interpretation of zone as per CLSI recommendations (E. coli M50 [3]; Table 5, ESBL inhibitor 0 mcg): (R)
- Interpretation of zone as per CLSI recommendations (E. coli M50 [3]; [8]): (R)
- Interpretation of zone as per CLSI recommendations (E. coli M50 [3]; Table 6, ESBL inhibitor 0 mcg): (R)
- Interpretation of zone as per CLSI recommendations (E. coli M50 [3]; [9]): (R)
- Zone of Inhibition (E. coli M50 [3]; with Clavulanic acid 10 mcg): Nil
- Zone of Inhibition (E. coli M-138; [7]): Nil
- Interpretation of zone as per CLSI recommendations (E. coli M-138; Table 5, ESBL inhibitor 0 mcg): (R)
- Interpretation of zone as per CLSI recommendations (E. coli M-138; [8]): (R)
- Interpretation of zone as per CLSI recommendations (E. coli M-138; Table 6, ESBL inhibitor 0 mcg): (R)
- Interpretation of zone as per CLSI recommendations (E. coli M-138; [9]): (R)
- Zone of Inhibition (E. coli M-138; with Clavulanic acid 10 mcg): Nil
- Zone of Inhibition (E. coli B-123; [7]): Nil
- Interpretation of zone as per CLSI recommendations (E. coli B-123; Table 5, ESBL inhibitor 0 mcg): (R)
- Interpretation of zone as per CLSI recommendations (E. coli B-123; [8]): (R)
- Interpretation of zone as per CLSI recommendations (E. coli B-123; Table 6, ESBL inhibitor 0 mcg): (R)
- Interpretation of zone as per CLSI recommendations (E. coli B-123; [9]): (R)
- Zone of Inhibition (E. coli B-123; with Clavulanic acid 10 mcg): Nil
- Zone of Inhibition (E. coli S-112; [7]): Nil
- Interpretation of zone as per CLSI recommendations (E. coli S-112; Table 5, ESBL inhibitor 0 mcg): (R)
- Interpretation of zone as per CLSI recommendations (E. coli S-112; [8]): (R)
- Interpretation of zone as per CLSI recommendations (E. coli S-112; Table 6, ESBL inhibitor 0 mcg): (R)
- Interpretation of zone as per CLSI recommendations (E. coli S-112; [9]): (R)
- Zone of Inhibition (E. coli S-112; with Clavulanic acid 10 mcg): Nil
- MIC (E. coli 7MP [4]; [10]): >64 µg/mL
- MIC (E. coli 7MP [4]; [11]): >64 µg/mL
- MIC (E. coli 7MP [4]; Escherichia coli, 7MP, 20 h): > 128 µg/mL
- MIC (E. cloacae M-20; [12]): >64 µg/mL
- MIC (E. cloacae M-20; [13]): >64 µg/mL
- MIC (E. cloacae M-20; Enterobacter cloacae, M20, 20 h): > 128 µg/mL
- MIC (E. coli B-89 [5]; [14]): >64 µg/mL
- MIC (E. coli B-89 [5]; [15]): >64 µg/mL
- MIC (E. coli B-89 [5]; Escherichia coli, B89, 20 h): > 128 µg/mL
- MIC (E. coli M50 [6]; Escherichia coli, M50, 20 h, Tazobactam 0 mcg (antibiotic alone)): > 128 µg/mL
- MIC (E. coli M50 [6]; with Tazobactam 4 mcg): >64 µg/mL
- MIC (E. coli M50 [6]; with Tazobactam 8 mcg): >64 µg/mL
- MIC (K. pneumoniae M150; M150): > 128 µg/mL
- MIC (K. pneumoniae M150; [16]): > 64 µg/mL
- MIC (K. pneumoniae M150; [17]): > 64 µg/mL

SMILES: CC1(C)S[C@@H]2[C@H](NC(=O)[C@H](N)c3ccccc3)C(=O)N2[C@H]1C(=O)O [Ampicillin]
- Zone of Inhibition (E. coli 7MP [1]; [7]): Nil
- Interpretation of zone as per CLSI recommendations (E. coli 7MP [1]; Table 5, ESBL inhibitor 0 mcg): (R)
- Interpretation of zone as per CLSI recommendations (E. coli 7MP [1]; Table 5, with Sulbactam 10 mcg): (R)
- Interpretation of zone as per CLSI recommendations (E. coli 7MP [1]; Table 6, ESBL inhibitor 0 mcg): (R)
- Interpretation of zone as per CLSI recommendations (E. coli 7MP [1]; Table 6, with Sulbactam 10 mcg): (R)
- Zone of Inhibition (E. coli 7MP [1]; with Sulbactam 10 mcg): Nil
- Zone of Inhibition (E. coli B-89 [2]; [7]): Nil
- Interpretation of zone as per CLSI recommendations (E. coli B-89 [2]; Table 5, ESBL inhibitor 0 mcg): (R)
- Interpretation of zone as per CLSI recommendations (E. coli B-89 [2]; Table 5, with Sulbactam 10 mcg): (R)
- Interpretation of zone as per CLSI recommendations (E. coli B-89 [2]; Table 6, ESBL inhibitor 0 mcg): (R)
- Interpretation of zone as per CLSI recommendations (E. coli B-89 [2]; Table 6, with Sulbactam 10 mcg): (R)
- Zone of Inhibition (E. coli B-89 [2]; with Sulbactam 10 mcg): Nil
- Zone of Inhibition (E. coli M50 [3]; [7]): Nil
- Interpretation of zone as per CLSI recommendations (E. coli M50 [3]; Table 5, ESBL inhibitor 0 mcg): (R)
- Interpretation of zone as per CLSI recommendations (E. coli M50 [3]; Table 5, with Sulbactam 10 mcg): (R)
- Interpretation of zone as per CLSI recommendations (E. coli M50 [3]; Table 6, ESBL inhibitor 0 mcg): (R)
- Interpretation of zone as per CLSI recommendations (E. coli M50 [3]; Table 6, with Sulbactam 10 mcg): (R)
- Zone of Inhibition (E. coli M50 [3]; with Sulbactam 10 mcg): Nil
- Zone of Inhibition (E. coli M-138; [7]): Nil
- Interpretation of zone as per CLSI recommendations (E. coli M-138; Table 5, ESBL inhibitor 0 mcg): (R)
- Interpretation of zone as per CLSI recommendations (E. coli M-138; Table 5, with Sulbactam 10 mcg): (R)
- Interpretation of zone as per CLSI recommendations (E. coli M-138; Table 6, ESBL inhibitor 0 mcg): (R)
- Interpretation of zone as per CLSI recommendations (E. coli M-138; Table 6, with Sulbactam 10 mcg): (R)
- Zone of Inhibition (E. coli M-138; with Sulbactam 10 mcg): Nil
- Zone of Inhibition (E. coli B-123; [7]): Nil
- Interpretation of zone as per CLSI recommendations (E. coli B-123; Table 5, ESBL inhibitor 0 mcg): (R)
- Interpretation of zone as per CLSI recommendations (E. coli B-123; Table 5, with Sulbactam 10 mcg): (R)
- Interpretation of zone as per CLSI recommendations (E. coli B-123; Table 6, ESBL inhibitor 0 mcg): (R)
- Interpretation of zone as per CLSI recommendations (E. coli B-123; Table 6, with Sulbactam 10 mcg): (R)
- Zone of Inhibition (E. coli B-123; with Sulbactam 10 mcg): Nil
- Zone of Inhibition (E. coli S-112; [7]): Nil
- Interpretation of zone as per CLSI recommendations (E. coli S-112; Table 5, ESBL inhibitor 0 mcg): (R)
- Interpretation of zone as per CLSI recommendations (E. coli S-112; Table 5, with Sulbactam 10 mcg): (R)
- Interpretation of zone as per CLSI recommendations (E. coli S-112; Table 6, ESBL inhibitor 0 mcg): (R)
- Interpretation of zone as per CLSI recommendations (E. coli S-112; Table 6, with Sulbactam 10 mcg): (R)
- Zone of Inhibition (E. coli S-112; with Sulbactam 10 mcg): Nil
- MIC (E. coli 7MP [4]; [10]): >64 µg/mL
- MIC (E. coli 7MP [4]; [11]): >64 µg/mL
- MIC (E. coli 7MP [4]; Escherichia coli, 7MP, 20 h, E. coli 7MP, Tazobactam 0 mcg (antibiotic alone), read-out: MIC): > 128 µg/mL
- MIC (E. cloacae M-20; [12]): >64 µg/mL
- MIC (E. cloacae M-20; [13]): >64 µg/mL
- MIC (E. cloacae M-20; Enterobacter cloacae, M20, 20 h, E. cloacae M-20, Tazobactam 0 mcg (antibiotic alone), read-out: MIC): > 128 µg/mL
- MIC (E. coli B-89 [5]; [14]): >64 µg/mL
- MIC (E. coli B-89 [5]; [15]): >64 µg/mL
- MIC (E. coli B-89 [5]; Escherichia coli, B89, 20 h, E. coli B-89, Tazobactam 0 mcg (antibiotic alone), read-out: MIC): > 128 µg/mL
- MIC (E. coli M50 [6]; Escherichia coli, 20 h, Tazobactam 0 mcg (antibiotic alone), read-out: MIC): > 128 µg/mL
- MIC (E. coli M50 [6]; with Tazobactam 4 mcg): >64 µg/mL
- MIC (E. coli M50 [6]; with Tazobactam 8 mcg): >64 µg/mL
- MIC (K. pneumoniae M150; M150, K. pneumoniae M150, Tazobactam 0 mcg (antibiotic alone), read-out: MIC): > 128 µg/mL
- MIC (K. pneumoniae M150; [16]): > 64 µg/mL
- MIC (K. pneumoniae M150; [17]): > 64 µg/mL
